From publication PMC7582516, “A Novel Series of [1,2,4]Triazolo[4,3-a]Pyridine Sulfonamides as Potential Antimalarial Agents: In Silico Studies, Synthesis and In Vitro Evaluation” (Molecules, 2020)
In brackets after ≈: the same amount, converted by molar mass.

How the values were obtained:
MRC-5 SV2 cells = assay: Cytotoxicity assay (resazurin); format: cell-based; conditions: Homo sapiens, MRC-5 fibroblast cytotoxicity, 72 h
Protocol: Stock solutions were prepared in 100% DMSO at 20 mg/mL just prior to screening. […] Reference drugs were either obtained from the fine chemical supplier Sigma or from WHO-TDR. The integrated panel of microbial screens and standard screening methodologies was adopted as previously described. All assays were performed in triplicate at the Laboratory of Microbiology, Parasitology and Hygiene at the University of Antwerp, Belgium. […] The selectivity antiprotozoal potential was assessed by simultaneous evaluation of cytotoxicity on a fibroblast (MRC-5) cell line. […] Cell viability was assessed fluorimetrically after 4 h of addition of resazurin. Fluorescence was measured (excitation 550 nm, emission 590 nm) and the results were expressed as % reduction in cell viability compared to control.

[1] = Solubility in DMSO/Water (practical data); format: physicochemical

SMILES | melting point | Solubility [1] | IC50 (MRC-5 SV2 cells) [µg/mL]
COc1ccc(CN(c2cc(C)cc(C)c2)S(=O)(=O)c2cccn3c(C)nnc23)cc1 [Compound 8c, N-(3,5-dimethylphenyl)-N-(4-methoxybenzyl)-3-methyl-[1,2,4]triazolo[4,3-a]pyridine-8-sulfonamide] |  |  | > 64
CCc1nnc2ccc(S(=O)(=O)N(Cc3cccc(F)c3)c3ccc(OC)cc3)cn12 [Compound 8e, 3-Ethyl-N-(3-fluorobenzyl)-N-(4-methoxyphenyl)-[1,2,4]triazolo[4,3-a]pyridine-6-sulfonamide] |  | moderately soluble | 18.2 (≈ 41.3 µM)
Cc1cccc(CN(c2ccc(F)cc2)S(=O)(=O)c2ccc3nnc(C)n3c2)c1 [Compound 8f, N-(4-fluorophenyl)-3-methyl-N-(3-methylbenzyl)-[1,2,4]triazolo[4,3-a]pyridine-6-sulfonamide] | 104 to 105 °C |  | > 64
Cc1nnc2ccc(S(=O)(=O)N(Cc3ccc(F)cc3)c3ccc(Cl)cc3)cn12 [Compound 8i, N-(4-chlorophenyl)-N-(4-fluorobenzyl)-3-methyl-[1,2,4]triazolo[4,3-a]pyridine-6-sulfonamide] | 198 to 199 °C |  | > 64
O=S(=O)(c1cccn2cnnc12)N(Cc1cccc(Cl)c1)c1cc(F)cc(F)c1 [Compound 8a, N-(3-chlorobenzyl)-N-(3,5-difluorophenyl)-[1,2,4]triazolo[4,3-a]pyridine-8-sulfonamide] | 160 to 162 °C |  | > 64
COC(=O)c1ccc(CN(c2cccc(C)c2)S(=O)(=O)c2ccc3nnc(C)n3c2)o1 [Compound 8d, Methyl 5-{[3-methyl-N-(3-methylphenyl)-[1,2,4]triazolo[4,3-a]pyridine-6-sulfonamido]methyl}furan-2-carboxylate] | 152 to 154 °C |  | > 64
Cc1nnc2ccc(S(=O)(=O)N(Cc3ccccc3F)c3cccc(Cl)c3)cn12 [Compound 8h, N-(3-chlorophenyl)-N-(2-fluorobenzyl)-3-methyl-[1,2,4]triazolo[4,3-a]pyridine-6-sulfonamide] |  |  | > 64
Cc1nnc2ccc(S(=O)(=O)N(Cc3cccc(Cl)c3)c3ccc(F)cc3)cn12 [Compound 8g, N-(3-chlorobenzyl)-N-(4-fluorophenyl)-3-methyl-[1,2,4]triazolo[4,3-a]pyridine-6-sulfonamide] | 107 to 109 °C |  | > 64
O=c1n(Cc2ccccc2Cl)nc2c(S(=O)(=O)N3CCOCC3)cccn12 [Compound 13d, 2-(2-Chlorobenzyl)-8-(morpholinosulfonyl)-[1,2,4]triazolo[4,3-a]pyridin-3(2H)-one] |  |  | > 64
Cc1cc(C)cc(N(Cc2cc(C)ccc2C)S(=O)(=O)c2cccn3c(C)nnc23)c1 [Compound 8b, N-(2,5-dimethylbenzyl)-N-(3,5-dimethylphenyl)-3-methyl-[1,2,4]triazolo[4,3-a]pyridine-8-sulfonamide] |  |  | 48.5 (≈ 112 µM)

The next lines start with results.

melting point | Solubility [1] | SMILES | IC50 (MRC-5 SV2 cells) [µg/mL]
155 to 156 °C |  | Cc1ccc(CSc2nnc3c(S(=O)(=O)N4CCCCC4)cccn23)cc1 [Compound 15c, 3-(4-Methylbenzylthio)-8-(piperidin-1-ylsulfonyl)-[1,2,4]triazolo[4,3-a]pyridine] | > 64
173 to 174 °C |  | O=c1n(Cc2ccc(Cl)cc2)nc2ccc(S(=O)(=O)N3CCCCC3)cn12 [Compound 13f, 2-(4-Chlorobenzyl)-6-(piperidin-1-ylsulfonyl)-[1,2,4]triazolo[4,3-a]pyridin-3(2H)-one] | > 64
164 to 166 °C |  | O=S(=O)(c1cccn2c(SCc3ccccc3Cl)nnc12)N1CCCC1 [Compound 15e, 3-(2-Chlorobenzylthio)-8-(pyrrolidin-1-ylsulfonyl)-[1,2,4]triazolo[4,3-a]pyridine] | > 64
160 to 162 °C |  | O=S(=O)(c1cccn2c(SCc3cccc(Br)c3)nnc12)N1CCCCC1 [Compound 15b, 3-(3-Bromobenzylthio)-8-(piperidin-1-ylsulfonyl)-[1,2,4]triazolo[4,3-a]pyridine] | > 64
150 to 151 °C |  | CC1CCN(S(=O)(=O)c2ccc3nn(Cc4ccccc4F)c(=O)n3c2)CC1 [Compound 13h, 2-(2-Fluorobenzyl)-6-(4-methylpiperidin-1-ylsulfonyl)-[1,2,4]triazolo[4,3-a]pyridin-3(2H)-one] | > 64
221 to 222 °C |  | O=c1n(Cc2cc(F)cc(F)c2)nc2c(S(=O)(=O)N3CCCCC3)cccn12 [Compound 13c, 2-(3,5-Difluorobenzyl)-8-(piperidin-1-ylsulfonyl)-[1,2,4]triazolo[4,3-a]pyridin-3(2H)-one] | > 64
190 to 191 °C |  | O=c1n(Cc2ccc(F)cc2Cl)nc2ccc(S(=O)(=O)N3CCSCC3)cn12 [Compound 13j, 2-(2-Chloro-4-fluorobenzyl)-6-(thiomorpholinosulfonyl)-[1,2,4]triazolo[4,3-a]pyridin-3(2H)-one] | > 64
169 to 170 °C |  | COc1ccc(CSc2nnc3c(S(=O)(=O)N4CCCCC4)cccn23)cc1 [Compound 15a, 3-(4-Methoxybenzylthio)-8-(piperidin-1-ylsulfonyl)-[1,2,4]triazolo[4,3-a]pyridine] | > 64
145 to 146 °C |  | Cc1cccc(Cn2nc3ccc(S(=O)(=O)N4CCC(C)CC4)cn3c2=O)c1 [Compound 13g, 2-(3-Methylbenzyl)-6-(4-methylpiperidin-1-ylsulfonyl)-[1,2,4]triazolo[4,3-a]pyridin-3(2H)-one] | > 64
 | moderately soluble | O=c1n(Cc2cccc(Cl)c2)nc2c(S(=O)(=O)N3CCCCC3)cccn12 [Compound 13a, 2-(3-Chlorobenzyl)-8-(piperidin-1-ylsulfonyl)-[1,2,4]triazolo[4,3-a]pyridin-3(2H)-one] | > 64
113 to 115 °C |  | O=S(=O)(c1cccn2c(SCc3ccc(F)cc3)nnc12)N1CCCc2ccccc21 [Compound 15f, 1-(3-(4-Fluorobenzylthio)-[1,2,4]triazolo[4,3-a]pyridin-8-ylsulfonyl)-1,2,3,4-tetrahydroquinoline] | > 64
154 to 155 °C |  | O=c1n(Cc2cccc(F)c2)nc2ccc(S(=O)(=O)N3CCSCC3)cn12 [Compound 13i, 2-(3-Fluorobenzyl)-6-(thiomorpholinosulfonyl)-[1,2,4]triazolo[4,3-a]pyridin-3(2H)-one] | > 64
160 to 161 °C |  | O=c1n(Cc2ccc3c(c2)OCO3)nc2c(S(=O)(=O)N3CCCCC3)cccn12 [Compound 13b, 2-(Benzo[d][1,3]dioxol-5-ylmethyl)-8-(piperidin-1-ylsulfonyl)-[1,2,4]triazolo[4,3-a]pyridin-3(2H)-one] | > 64
143 to 145 °C |  | O=S(=O)(c1cccn2c(SCc3cccc(Cl)c3)nnc12)N1CCCC1 [Compound 15d, 3-(3-Chlorobenzylthio)-8-(pyrrolidin-1-ylsulfonyl)-[1,2,4]triazolo[4,3-a]pyridine] | > 64
258 to 260 °C (dec.) |  | O=C1CCCN1c1ccc(Cn2nc3c(S(=O)(=O)N4CCOCC4)cccn3c2=O)cc1 [Compound 13e, 8-(Morpholinosulfonyl)-2-[4-(2-oxopyrrolidin-1-yl)benzyl]-[1,2,4]triazolo[4,3-a]pyridin-3(2H)-one] | > 64
